{"source": "patent US20150290192A1", "about": "“INHIBITORS OF BRUTON'S TYROSINE KINASE” (HOFFMANN-LA ROCHE INC., priority 2012, published 2015)", "key": {"Bruton's Tyrosine Kinase": {"target": "Bruton's Tyrosine Kinase (Homo sapiens, UniProt Q06187)", "sequence (Q06187 whole entry)": "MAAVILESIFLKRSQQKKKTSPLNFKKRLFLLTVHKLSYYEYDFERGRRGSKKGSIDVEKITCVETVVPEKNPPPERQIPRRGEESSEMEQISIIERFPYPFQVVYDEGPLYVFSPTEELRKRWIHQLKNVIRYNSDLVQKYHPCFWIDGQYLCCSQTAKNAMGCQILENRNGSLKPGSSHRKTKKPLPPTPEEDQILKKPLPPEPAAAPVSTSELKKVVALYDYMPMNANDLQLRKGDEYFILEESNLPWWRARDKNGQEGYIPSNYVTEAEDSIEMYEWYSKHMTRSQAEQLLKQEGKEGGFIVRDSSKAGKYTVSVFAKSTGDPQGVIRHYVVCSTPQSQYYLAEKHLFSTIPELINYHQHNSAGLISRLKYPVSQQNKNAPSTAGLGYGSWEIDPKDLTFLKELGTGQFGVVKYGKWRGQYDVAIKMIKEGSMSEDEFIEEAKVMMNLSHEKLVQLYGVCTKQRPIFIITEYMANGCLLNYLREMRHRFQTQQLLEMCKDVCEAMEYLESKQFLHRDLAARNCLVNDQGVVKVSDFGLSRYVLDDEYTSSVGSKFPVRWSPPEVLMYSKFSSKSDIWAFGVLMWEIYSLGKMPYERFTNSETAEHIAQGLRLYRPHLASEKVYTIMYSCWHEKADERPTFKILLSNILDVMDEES", "test": "Bruton's Tyrosine Kinase (BTK) inhibition TR-FRET competition assay", "type": "binding", "details": "for IC50: inactivated state of BTK, 18-24 h at 14° C.", "experimental": "This BTK competition assay measures compound potency (IC50) for the inactivated state of Bruton's Tyrosine Kinase using FRET (Firster/Fluorescence Resonance Energy Transfer) technology. The BTK-Eu complex was incubated on ice one hour prior to use at a starting concentration of 50 nM BTK-Bioease™: 10 nM Eu-streptavidin (Perkin-Elmer Catalog#AD0062). The assay buffer consisted of 20 mM HEPES (pH 7.15), 0.1 mM DTT, 10 mM MgCl2, 0.5 mg/ml BSA with 3% Kinase Stabilizer (Fremont Biosolutions, Catalog #STB-K02). After 1 h, the reaction mixture from above was diluted 10 fold in assay buffer to make 5 nM BTK: InM Eu-Streptavidin complex (donor fluorophore). 18 l of a mixture of 0.11 nM BTK-Eu and 0.11 nM Kinase Tracer 178 (Invitrogen, Catalog #PV5593,) with BTK-Eu alone as no negative control, was then dispensed into 384-well flat bottom plates (Greiner, 784076). Compounds to be tested in assay were prepared as 10× concentrations and serial dilution in half-log increments was performed in DMSO so as to generate 10 point curves. To initiate the FRET reaction, compounds prepared as 10× stock in DMSO was added to the plates and the plates were incubated 18-24 h at 14° C.\nAfter the incubation the plates were read on a BMG Pherastar Fluorescent plate reader (or equivalent) and used to measure the emission energy from the europium donor fluorophore (620 nm emission) and the FRET (665 nm emission). The negative control well values were averaged to obtain the mean minimum. The positive “no inhibitor” control wells were averaged to obtain the mean maximum. Percent of maximal FRET was calculated using following equation:\n% max FRET=100×[(FSRcmpd−FSRmean min)/(FSRmean max−FSRmean min)]\nwhere FSR=FRET Signal ratio. % Max FRET curves were plotted in Activity Base (Excel) and the IC50(%), hill slope, z′ and % CV were determined. The mean IC50 and standard deviation will be derived from duplicate curves (singlet inhibition curves from two independent dilutions) using Microsoft Excel."}, "[1]": {"tested_on": "OVA sensitized and challenged mice, allergen-induced bronchoconstriction", "test": "Ovalbumin-induced allergic airway disease: allergen-induced bronchoconstriction", "details": "Intranasal"}, "Pharmacokinetics in rat": {"test": "Pharmacokinetics in rat", "type": "in vivo", "details": "for CL / clearance: 0.5 mg/kg (iv); for Oral Bioavailability / bioavailability: 0.5 (iv), 2 (po) mg/kg; for clearance / bioavailability: plasma; for bioavailability: 2 mg/kg"}, "[2]": {"tested_on": "human B cells (BCR activation)", "test": "Human B cell antibody production after BCR activation", "type": "cell-based", "details": "Homo sapiens, B-cell, 240 h, 10 days culture, N = 3 donors", "experimental": "Human total B cells were enriched with RosetteSep human B cell enrichment cocktail (#28921, Vancouver, BC) from buffy coat leukocyte packs (New York Blood Center) following manufacturer's protocol. Enriched B cell purity (around 80%) was checked by FACS with CD19+ staining. B cells were suspended (0.1 million cells/well/100 μl) in RPMI-1640 based conditional medium (50 ng/ml IL-2, 50 ng/ml IL-10, and […] anti-IgD for the activation of B cells to produce IgG/IgM; 10 ng/ml IL-4, 10 ng/ml IL-10, 25 ng/ml IL-21, and […] anti-CD40 for the activation of B cells to produce IgE) together with Compound 1 (1 nM-10 μM). Cells were cultured for 10 days (for IgG/IgM production) or 14 days (for IgE production) at 37° C. Culture supernatants were collected for IgM, IgG, and IgE analysis following Bethyl Laboratory's protocol (#E80-104, #E80-100, #E80-108, Montgomery, Tex.)."}, "Btk kinase": {"target": "Btk kinase (Homo sapiens, UniProt Q06187)", "sequence (Q06187 whole entry)": "as above", "test": "Btk Biacore binding assay", "details": "for off rate: Biacore; for kon: read-out: Biacore Ka", "description": "Analyses were performed on a Biacore T-100. Btk kinase was avi-tagged and co-expressed in baculovirus with biotin ligase to generate single site biotinylated Btk (Avidity, LLC). Biotinylated target was captured on Biacore streptavidin sensor chips (Series S Sensor Chip SA) at densities of ˜10000 resonance units (1 ru˜1 pg protein/mm2). […] Compounds were injected for 100 seconds association time and dissociation was followed for 20 min."}, "[3]": {"tested_on": "human mast cells (FCεRI activation)", "test": "Human mast cell activation, mediator release after FCεRI activation", "type": "cell-based", "details": "N = 3 donors", "experimental": "One million human cord blood derived CD34+ hematopoietic stem cells (HSCs) from different donors (AllCells #CB008F-S, Emeryville, Calif.) were cultured for eight weeks in a serum-free complete medium (StemPro-34 with supplements; Invitrogen, Carlsbad, Calif.), with recombinant h-SCF (100 ng/ml) and h-IL6 (50 ng/ml). During the first week of culturing, recombinant h-IL3 (10 ng/ml) was also included to support HSCs differentiation. After 8 weeks of culture, cells were stimulated with recombinant h-IL-4 (10 ng/ml) for 5 days. Confirmation of the mast cell differentiation process was routinely done by FACS to check for c-kit and FcsRI expression; differentiated cells were routinely more than 90% c-kit positive, FceRI positive. Differentiated mast cells were sensitized with […] anti-NP IgE (Serotec, Raleigh, N.C.) overnight at 37° C. Cells were washed and then treated with Compound 1 for 1 hour at 37° C. After treatment, cells were cross-linked with […] NP(30)-BSA (Biosearch Technologies, Novato Calif.) for 30 minutes (for histamine and lipid mediator assessment) or overnight (for cytokine assessment). Culture supernatants were collected and assayed for histamine (Oxford Biomedical Research, Rochester Hills, Mich.), PGD2 and LTC4 (Cayman Chemical Company, Ann Arbor Mich.), and IL-5 and IL-13 (Bio-Rad Bio-Plex Pro cytokine quantification kit) release as per kits' instructions. Compound 1, Compound 2 and Compound 3 reduced the release of these mediators into the supernatant in a concentration dependent manner up to 100% efficacy and the IC50 values are reported in Table 2."}, "Pharmacokinetics in dog": {"test": "Pharmacokinetics in dog", "type": "in vivo", "details": "for CL / clearance: 1.0 mg/kg (iv); for Oral Bioavailability / bioavailability: 1.0 (iv), 1.0 (po) mg/kg; for clearance / bioavailability: plasma; for bioavailability: 1 mg/kg"}, "[4]": {"details": "delivered dose 0.3 mg/kg, deposited dose 0.3 mg/kg"}, "[5]": {"details": "delivered dose 1.0 mg/kg, deposited dose 1.0 mg/kg"}, "[6]": {"details": "delivered dose 3.0 mg/kg, deposited dose 3.0 mg/kg"}, "[7]": {"details": "read-out: IC50 Histamine release"}}, "note": "Read-outs that look alike come from different tables or passages of the source. Marks after values point to notes of the source that are not given here."}
{"smiles": "Cn1nc(Nc2cc(-c3cccc(-n4ccc5cc(C(C)(C)C#N)cc(F)c5c4=O)c3CO)nn(C)c2=O)cc1CN1CCC1", "note": "[Compound 2, 2-(2-{3-[5-(5-Azetidin-1-ylmethyl-1-methyl-1H-pyrazol-3-ylamino)-1-methyl-6-oxo-1,6-dihydro-pyridazin-3-yl]-2-hydroxymethyl-phenyl}-8-fluoro-1-oxo-1,2-dihydro-isoquinolin-6-yl)-2-methyl-propionitrile]", "values": [{"measurement": "Btk inhibitor potency (FRET)", "setting": "Bruton's Tyrosine Kinase", "value": "very potent"}, {"measurement": "IC50", "setting": "Bruton's Tyrosine Kinase", "value": 1.1, "unit": "nM"}, {"measurement": "% reduction in airway resistance (R)", "setting": "[1]; [4]", "value": 53, "unit": "%"}, {"measurement": "% reduction in airway resistance (R)", "setting": "[1]; [5]", "value": "64* %"}, {"measurement": "% reduction in airway resistance (R)", "setting": "[1]; [6]", "value": "105* %"}, {"measurement": "CL", "setting": "Pharmacokinetics in rat; Table 8", "value": "high"}, {"measurement": "Oral Bioavailability", "setting": "Pharmacokinetics in rat; Table 8", "value": "low"}, {"measurement": "clearance", "setting": "Pharmacokinetics in rat; Table 8", "value": 84.9, "unit": "mL/min/kg"}, {"measurement": "bioavailability", "setting": "Pharmacokinetics in rat; Table 8", "value": "< 2", "unit": "%"}, {"measurement": "IC50", "setting": "[2]; read-out: IC50 IgG production", "value": 9.26, "unit": "nM"}, {"measurement": "IC50", "setting": "[2]; read-out: IC50 IgM production", "value": 3.28, "unit": "nM"}, {"measurement": "Kd", "setting": "Btk kinase", "value": 1.48, "unit": "nM"}, {"measurement": "off rate", "setting": "Btk kinase", "value": "very slow"}, {"measurement": "kon", "setting": "Btk kinase", "value": 453000, "unit": "M⁻¹ s⁻¹"}, {"measurement": "IC50", "setting": "[3]; read-out: IC50 1L-13 release", "value": 91.9, "unit": "nM"}, {"measurement": "IC50", "setting": "[3]; read-out: IC50 GM-CSF release", "value": 26, "unit": "nM"}, {"measurement": "IC50", "setting": "[3]; [7]", "value": 9.6, "unit": "nM"}, {"measurement": "IC50", "setting": "[3]; read-out: IC50 IL-5 release", "value": 13.2, "unit": "nM"}, {"measurement": "IC50", "setting": "[3]; read-out: IC50 PGD2 release", "value": 3.09, "unit": "nM"}, {"measurement": "CL", "setting": "Pharmacokinetics in dog; Table 8", "value": "high"}, {"measurement": "Oral Bioavailability", "setting": "Pharmacokinetics in dog; Table 8", "value": "low"}, {"measurement": "clearance", "setting": "Pharmacokinetics in dog; Table 8", "value": 35, "unit": "mL/min/kg"}, {"measurement": "bioavailability", "setting": "Pharmacokinetics in dog; Table 8", "value": 4, "unit": "%"}]}
{"smiles": "COCCNCc1ccc(Nc2cc(-c3cccc(N4CCc5cc(C(C)(C)C)ccc5C4=O)c3CO)cn(C)c2=O)nc1", "note": "[Compound 3, 6-tert-Butyl-2-[2-hydroxymethyl-3-(5-{5-[(2-methoxy-ethylamino)-methyl]-pyridin-2-ylamino}-1-methyl-6-oxo-1,6-dihydro-pyridin-3-yl)-phenyl]-3,4-dihydro-2H-isoquinolin-1-one]", "values": [{"measurement": "Btk inhibitor potency (FRET)", "setting": "Bruton's Tyrosine Kinase", "value": "very potent"}, {"measurement": "IC50", "setting": "Bruton's Tyrosine Kinase", "value": 0.2, "unit": "nM"}, {"measurement": "% reduction in airway resistance (R)", "setting": "[1]; [4]", "value": "77* %"}, {"measurement": "% reduction in airway resistance (R)", "setting": "[1]; [5]", "value": "83* %"}, {"measurement": "% reduction in airway resistance (R)", "setting": "[1]; [6]", "value": "93* %"}, {"measurement": "CL", "setting": "Pharmacokinetics in rat; Table 9", "value": "high"}, {"measurement": "Oral Bioavailability", "setting": "Pharmacokinetics in rat; Table 9", "value": "low"}, {"measurement": "clearance", "setting": "Pharmacokinetics in rat; Table 9", "value": 111, "unit": "mL/min/kg"}, {"measurement": "bioavailability", "setting": "Pharmacokinetics in rat; Table 9", "value": 7, "unit": "%"}, {"measurement": "IC50", "setting": "[2]; read-out: IC50 IgG production", "value": 3.17, "unit": "nM"}, {"measurement": "IC50", "setting": "[2]; read-out: IC50 IgM production", "value": 4.76, "unit": "nM"}, {"measurement": "Kd", "setting": "Btk kinase", "value": 0.119, "unit": "nM"}, {"measurement": "off rate", "setting": "Btk kinase", "value": "very slow"}, {"measurement": "kon", "setting": "Btk kinase", "value": "1.07e+06", "unit": "M⁻¹ s⁻¹"}, {"measurement": "IC50", "setting": "[3]; read-out: IC50 1L-13 release", "value": 97.4, "unit": "nM"}, {"measurement": "IC50", "setting": "[3]; read-out: IC50 GM-CSF release", "value": 28.6, "unit": "nM"}, {"measurement": "IC50", "setting": "[3]; [7]", "value": 21.7, "unit": "nM"}, {"measurement": "IC50", "setting": "[3]; read-out: IC50 IL-5 release", "value": 86.7, "unit": "nM"}, {"measurement": "IC50", "setting": "[3]; read-out: IC50 PGD2 release", "value": 5.31, "unit": "nM"}, {"measurement": "CL", "setting": "Pharmacokinetics in dog; Table 9", "value": "high"}, {"measurement": "Oral Bioavailability", "setting": "Pharmacokinetics in dog; Table 9", "value": "low"}, {"measurement": "clearance", "setting": "Pharmacokinetics in dog; Table 9", "value": 31.4, "unit": "mL/min/kg"}, {"measurement": "bioavailability", "setting": "Pharmacokinetics in dog; Table 9", "value": 8, "unit": "%"}]}
